Results on three compounds are retold here after PMC11844072, “Novel 5,6-dichlorobenzimidazole derivatives as dual BRAFWT and BRAFV600E inhibitors: design, synthesis, anti-cancer activity and molecular dynamics simulations” (BMC Chemistry, 2025).

Test in all cases: NCI 60 single concentration growth inhibition
Holding throughout (assay type): cell-based, human

One assay concerns 786-0. The note with it: 786-0, Renal cancer; for inhibition at 10 µM: Homo sapiens, read-out: GI%. The gist of the method: (§1)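 Growth measured by sulforhodamine B protein staining (515 nm) after 48 h drug exposure at 37 °C, following 24 h plating in RPMI 1640 with 5% FBS and 2 mM L-glutamine. Compounds first tested at one 10 µM dose, then five-dose series (10-fold or ½ log steps); percent growth relative to time-zero and untreated wells.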

For the next assay, the system named is A549/ATCC. To be noted: Non-small cell lung cancer; for inhibition at 10 µM: Homo sapiens, read-out: GI%. In outline: as §1
The test system of a further assay is ACHN. To be noted: Renal cancer; for inhibition at 10 µM: Homo sapiens, read-out: GI%. The gist of the method:
as §1

In the next assay the test system is BT-549. To be noted: BT-549, Breast cancer; for inhibition at 10 µM: Homo sapiens, read-out: GI%. In outline:
as §1

For a further assay, the system named is EKVX. The note with it: Non-small cell lung cancer; for inhibition at 10 µM: Homo sapiens, read-out: GI%. In outline:
as §1

Another assay relates to HOP-62. The note with it: HOP-62, Non-small cell lung cancer; for inhibition at 10 µM: Homo sapiens, read-out: GI%. The gist of the method: as §1
For the next assay, the system named is HS 578T. To be noted: Breast cancer; for inhibition at 10 µM: Homo sapiens, read-out: GI%. The gist of the method:
as §1

The next assay relates to M14. The note with it: M14, Melanoma; for inhibition at 10 µM: Homo sapiens, read-out: GI%. In outline: as §1
The next assay has as its system MCF7. To be noted: MCF7, Breast cancer; for inhibition at 10 µM: Homo sapiens, read-out: GI%. In outline:
as §1

In the next assay the test system is MDA-MB-231/ATCC. The note with it: Breast cancer; for inhibition at 10 µM: Homo sapiens, read-out: GI%. The gist of the method:
as §1

The next assay concerns OVCAR-5. To be noted: OVCAR-5, Ovarian cancer; for inhibition at 10 µM: Homo sapiens, read-out: GI%. In outline:
as §1

The test system of another assay is OVCAR-8. To be noted: OVCAR-8, Ovarian cancer; for inhibition at 10 µM: Homo sapiens, read-out: GI%. In outline: as §1
The test system of a further assay is PC-3. To be noted: PC-3, Prostate cancer; for inhibition at 10 µM: Homo sapiens, read-out: GI%. In outline:
as §1

The test system of the next assay is RXF 393. To be noted: RXF 393, Renal cancer; for inhibition at 10 µM: Homo sapiens, read-out: GI%. The gist of the method:
as §1

Another assay has as its system SF-268. The note with it: SF-268, CNS cancer; for inhibition at 10 µM: Homo sapiens, read-out: GI%. In outline:
as §1

A further assay relates to SF-295. To be noted: SF-295, CNS cancer; for inhibition at 10 µM: Homo sapiens, read-out: GI%. The gist of the method: as §1
In a further assay the test system is SK-MEL-2. To be noted: SK-MEL-2, Melanoma; for inhibition at 10 µM: Homo sapiens, read-out: GI%. In outline:
as §1

In a further assay the test system is SK-MEL-5. To be noted: SK-MEL-5, Melanoma; for inhibition at 10 µM: Homo sapiens, read-out: GI%. The gist of the method:
as §1

The next assay relates to SN12C. To be noted: Renal cancer; for inhibition at 10 µM: Homo sapiens, read-out: GI%. In outline:
as §1

The test system of a further assay is SR. To be noted: Leukemia; for inhibition at 10 µM: Homo sapiens, read-out: GI%. The gist of the method:
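Cells are plated and left 24 h, and a time-zero plate is fixed at drug addition. Compound is then added for 48 h, the cells are fixed in cold TCA and stained with 0.4% SRB, and bound dye is solubilised in 10 mM Tris for reading at 515 nm.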

The test system of the next assay is T-47D. The note with it: Breast cancer; for inhibition at 10 µM: Homo sapiens, T47D, read-out: GI%. The gist of the method: as §1
Another assay concerns UACC-257. To be noted: UACC-257, Melanoma; for inhibition at 10 µM: Homo sapiens, read-out: GI%. In outline:
as §1

The subject of another assay is UACC-62. To be noted: UACC-62, Melanoma; for inhibition at 10 µM: Homo sapiens, read-out: GI%. In outline:
as §1

For the compound “2-(4-((2-(2-(5,6-Dichloro-2-(4-methoxyphenyl)-1H-benzo[d]imidazol-1-yl)acetyl)hydrazono)methyl) -2-methoxyphenoxy)acetic acid [Compound 10m]”, the GI% result in the assay with 786-0 (10 μM), with A549/ATCC (10 μM), in the assay with ACHN (10 μM), in the assay on BT-549 (10 μM), with EKVX (10 μM) and in the assay with HOP-62 (10 μM) was “– (GI% < 5%)” in each case. The GI% entry in the assay with HS 578T (10 μM) was “– (GI% < 5%)”; in the assay on M14 (10 μM), “– (GI% < 5%)”; in the assay with MCF7 (10 μM), 9.09%; with MDA-MB-231/ATCC (10 μM), “– (GI% < 5%)”; with OVCAR-5 (10 μM), “– (GI% < 5%)”; in the assay on OVCAR-8 (10 μM), “– (GI% < 5%)”. Further, the GI% entry in the assay on PC-3 (10 μM), with RXF 393 (10 μM), in the assay on SF-268 (10 μM), in the assay with SF-295 (10 μM), with SK-MEL-2 (10 μM) and in the assay with SK-MEL-5 (10 μM) was “– (GI% < 5%)” each time. Moreover, the GI% in the assay with SN12C (10 μM) is listed as 5.24%; in the assay with SR (10 μM) it was “– (GI% < 5%)”; in the assay with T-47D (10 μM) it was “– (GI% < 5%)”; with UACC-257 (10 μM), “– (GI% < 5%)”; with UACC-62 (10 μM), 6.42%.

Take `COc1ccc(-c2nc3cc(Cl)c(Cl)cc3n2CC(=O)NN=Cc2ccc(OC)c(O)c2)cc1` [Compound 10k, 2-(5,6-Dichloro-2-(4-methoxyphenyl)-1H-benzo[d]imidazol-1-yl)-N'-(3-hydroxy-4-methoxybenzylidene)acetohydrazide]: the inhibition at 10 µM was 25.3% in the assay on 786-0; 49.9% with A549/ATCC; 36.6% in the assay on ACHN; 31.7% in the assay with BT-549; 56.4% in the assay on EKVX; < 5% in the assay on HOP-62. Moreover, the inhibition at 10 µM is 27.4% in the assay with HS 578T; 34.7% with M14; 68% with MCF7; 33.9% in the assay with MDA-MB-231/ATCC; < 5% with OVCAR-5; 29.3% in the assay with OVCAR-8. In addition, the inhibition at 10 µM came out at 56.6% in the assay with PC-3; 42.2% in the assay on RXF 393; 45.6% in the assay on SF-268; 50% with SF-295; 40.2% with SK-MEL-2; 62.2% in the assay on SK-MEL-5. Moreover, the inhibition at 10 µM turned out to be 16.3% with SN12C; 52.2% in the assay on SR; 43.4% in the assay on T-47D; 40.1% with UACC-257; 35.4% with UACC-62.

On to `COc1ccc(-c2nc3cc(Cl)c(Cl)cc3n2CC(=O)NN=Cc2cccc(OC)c2)cc1` [Compound 10c, 2-(5,6-Dichloro-2-(4-methoxyphenyl)-1H-benzo[d]imidazol-1-yl)-N'-(3-methoxybenzylidene)acetohydrazide], for which the inhibition at 10 µM in the assay with 786-0 was 19.2%; with A549/ATCC, 36.1%; with ACHN, 20.4%; in the assay on BT-549, 52.9%; with EKVX, 30.4%; in the assay with HOP-62, 6.68%. For the same compound, the inhibition at 10 µM was 28.9% in the assay on HS 578T; 34.1% in the assay on M14; 56.6% in the assay with MCF7; 15.1% in the assay with MDA-MB-231/ATCC; < 5% in the assay with OVCAR-5; 13.5% with OVCAR-8. The inhibition at 10 µM in the assay on PC-3 is 29.5%; in the assay with RXF 393, 23.1%; in the assay on SF-268, 48.3%; in the assay with SF-295, 22.3%; in the assay with SK-MEL-2, 19.4%; in the assay with SK-MEL-5, 44.5%. The inhibition at 10 µM was 9.21% in the assay with SN12C; 48.4% in the assay on SR; 45.8% in the assay with T-47D; 20.9% in the assay with UACC-257; 37.2% in the assay on UACC-62.
